{"source": "patent US8242058B2", "about": "“Reagents and methods for appending functional groups to proteins” (Wisconsin Alumni Research Foundation, priority 2006, dated 2012)", "key": {"[1]": {"assay": "Immobilization on phosphinothioester-displaying chips by Staudinger ligation, immunofluorescence detection", "conditions": "10 μM in 5% DMF/water, r.t.", "procedure": "Preparation of Gold Chips (Chang). Preparation of Phosphinothioester-displaying SAMs of Alkane Thiols on Gold Chips. Alkane thiol solutions were prepared by dissolving HS—(CH2)11—(O—CH2—CH2)6—O—CH2—COOH and HS—(CH2)11—(O—CH2—CH2)3—OH in ethanol to a final concentration of 0.25 mM each. Gold chips were cleaned under a stream of Ar(g) and immersed in the alkane thiol solution for at least 18 h at r.t. After rinsing thoroughly with ethanol and drying under a stream of Ar(g), the chips were overlaid with an aqueous solution containing N-hydroxysuccinimide (50 mM) and 1-ethyl-3-(3-dimethylaminopropyl)-carbodiimide (200 mM) for 7 min to generate succinimidyl ester-displaying chips. Phosphinomethanethiol (PPh2CH2SH) was synthesized as described earlier and was dissolved in anhydrous DMF to a concentration of 100 mM. N,N-diisopropylethylamine (DIPEA) was added to a concentration of 120 mM. […]\nDetection of Immobilized RNase A. A chip displaying immobilized RNase A was overlaid with anti-RNase A rabbit primary antibody (100 μg/mL in sodium phosphate buffer (25 mM) at pH 7.5) for 30 min at r.t. […] Finally, the chip was rinsed with sodium phosphate buffer (25 mM) at pH 7.5 (2×20 mL) and incubated in the same buffer for 15 min and scanned with a Genomic Solutions® GeneTac UC4×4 Fluorescence Scanner using a gain of 50."}, "[2]": {"test_system": "6-carboxyfluorescein-dArU(dA)2-6-carboxytetramethylrhodamine", "assay": "RNase A activity assay on immobilized RNase A", "format": "biochemical", "conditions": "chip overlaid with 10 μM protein, pH 6.0", "procedure": "RNase A activity assay on immobilized RNase A. A phosphinothioester chip was overlaid with azido-RNase A (10 μM in 5% DMF/H2O) for 15 min in Ar(g) atmosphere in an AtmosBag™ to immobilize RNase A via Staudinger ligation. The chip was rinsed with sodium phosphate buffer (25 mM) at pH 7.5 (2×20 mL) and then introduced into a vial containing 2-(N-Morpholino)ethanesulfonic acid buffer (0.1 M) at pH 6.0 (22 mL, containing 0.1 M NaCl). A fluorogenic substrate of RNase A, 6-carboxyfluorescein-dArU(dA)2-6-carboxytetramethylrhodamine (10 μl of a 40 μM solution), was introduced into the vial. The vial was placed on a shaker and 2 mL aliquots were withdrawn at various time intervals and the fluorescence measured (λex=493 nm, λem=515 nm). The fluorescence intensity was plotted against time. A phosphinothioester chip was overlaid with wt-RNase A (10 μM in 5% DMF/H2O) and rinsed with sodium phosphate buffer (25 mM) at pH 7.5 (2×20 mL) and a similar assay was performed. As a negative control, a similar assay was performed on a phosphinothioester chip which was not overlaid with RNase A. The percentage of the fluorescent substrate cleaved at various time intervals were subtracted from the corresponding values for the negative control to generate the graph in FIG. 8."}, "[3]": {"target": "T1, ribonuclease inhibitor protein (RI) (Homo sapiens, UniProt P13489)", "T1 sequence (P13489 2-461 limits assumed)": "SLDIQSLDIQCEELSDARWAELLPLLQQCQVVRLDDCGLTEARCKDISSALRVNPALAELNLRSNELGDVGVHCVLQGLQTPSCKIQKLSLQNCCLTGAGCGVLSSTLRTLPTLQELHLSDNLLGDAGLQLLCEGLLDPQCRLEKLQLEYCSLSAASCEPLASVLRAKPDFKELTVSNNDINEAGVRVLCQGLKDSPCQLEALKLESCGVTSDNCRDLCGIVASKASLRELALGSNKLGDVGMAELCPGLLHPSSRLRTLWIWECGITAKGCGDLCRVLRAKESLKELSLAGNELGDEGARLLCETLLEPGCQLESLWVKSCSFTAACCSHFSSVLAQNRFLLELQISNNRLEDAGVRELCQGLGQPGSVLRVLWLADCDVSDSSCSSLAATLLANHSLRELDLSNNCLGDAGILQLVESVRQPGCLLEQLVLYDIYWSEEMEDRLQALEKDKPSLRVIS", "assay": "RI binding to immobilized RNase A (immunoassay, ellipsometry)", "conditions": "RI 10 μM, 10 min at 4° C.", "procedure": "RI binding to immobilized RNase A. Azido-RNase A (1 μL, 10 μM in 5% DMF/water) was spotted on phosphinothioester-displaying SAMs on a gold chip for 15 minutes at r.t. in an AtmosBag™ filled with Ar(g). The chip was taken out of the bag and rinsed with sodium phosphate buffer (25 mM) at pH 7.5 (2×20 mL) and incubated in the same buffer for 30 min to remove non-specifically bound RNase A. RI (10 μM in sodium phosphate buffer (25 mM) at pH 7.5 containing 10 mM DTT) was overlaid on the chip for 10 min at 4° C. The chip was then rinsed with sodium phosphate buffer (25 mM) at pH 7.5 containing 10 mM DTT (2×20 mL) and incubated in the same buffer for 15 min.\nDetection of RI bound to immobilized RNase A. (i) Immunoassay: After RI binding, the chip was overlaid with bovine serum albumin (2.0 mg/mL in sodium phosphate buffer (25 mM) at pH 7.5) for 15 min. The chip was rinsed with sodium phosphate buffer (25 mM) at pH 7.5 (2×20 mL) and subsequently incubated with chicken primary antibody to RI (12.5 μg/mL in sodium phosphate buffer (25 mM) at pH 7.5) for 15 min. […] The chip was scanned with a Genomic Solutions® GeneTac UC4×4 Fluorescence Scanner using a gain of 50. […]"}}}
{"substance": "Met(−1)RNase A-Gly-NHNHCH2C(O)NHCH2CH2N3 [azido-RNase A]", "values": [{"measurement": "time at which fluorescence signal of immobilized protein was detected", "setting": "[1]", "result": "≤ 1", "unit": "min"}, {"measurement": "enzymatic activity of chip incubated with the protein (increase of fluorescence intensity)", "setting": "[2]", "result": "much faster rate"}, {"measurement": "RI binding to chip incubated with the protein", "setting": "[3]", "result": "bound RI"}]}
